Paper PMC3466212, “Novel AChE Inhibitors for Sustainable Insecticide Resistance Management” (PLoS ONE, 2012)

Assays:
G119S AChE1 = molecular target: T1, G119S AChE1 (Culex pipiens, UniProt Q86GC8, G247S); experiment: biochemical; format: biochemical; conditions: recombinant OP-insensitive G119S C. pipiens AChE1; 15 min incubation; acetylthiocholine; read-out: IC50 G119S
T1 construct: made in house; host or cells: Drosophila S2 cells
Method: Production of C. pipiens WT and mutated AChE1s in Drosophila S2 cells was already described. The chemical library (ChemBridge, 3,000 compounds) screening was performed in duplicate on G119S recombinant AChE1. Chemicals were made soluble in ethanol or dimethylsulphoxide (DMSO), and then diluted at 300 µM in ethanol for storage. […] PTF analogs were analyzed in dose-response experiments (10-fold serial dilutions from 3 mM to 30 nM), using recombinant WT and G119S AChE1 or mosquito head extracts (heads cut from frozen mosquitoes, homogenized in 400 µl PB containing 1% Triton X-100 and cleared by centrifugation at 9,000×g for 3 min). Depending on compound availability, two to five replicates were performed with distinct batches of enzyme. […] IC50 was estimated by nonlinear least square regression. IC50 was also measured on AChE1 from susceptible and resistant mosquito larvae extracts.

[1] = test system: C. pipiens SR strain larvae; experiment: Larval bioassay, SR strain (OP-resistant); conditions: fourth-instar larvae, 24 hours exposure, 300 µM
Source text: (§1) Three C. pipiens strains were used: the susceptible reference Slab strain, homozygous for ace-1 ^S [39], the resistant reference SR strain, carrying the genetical background of Slab but homozygous for the G119S mutation, allele ace-1 ^R [21] and the Ducos strain, carrying the genetical background of Slab but homozygous for an ace-1 duplication, with one ace-1^S and ace-1^R copy in tandem. Culex pipiens heterozygous larvae (Slab×SR) were obtained by crossing Slab males and SR females.
(§2) Insecticidal activity was determined by performing bioassays on fourth-instar larvae as described in [42]. Each compound was dissolved in ethanol. Propoxur (CX) and chlorpyrifos (OP) were used as references. For each compound, we first tested mortality after a 24-hour exposure at 300 µM. […] Mortality data were analyzed by the log-probit program.

[2] = test system: C. pipiens Slab strain larvae; experiment: Larval bioassay, Slab strain (OP-susceptible); conditions: fourth-instar larvae, 24 hours exposure, 300 µM
Source text: as §1, with “females. Two A. gambiae reference strains (S molecular form) were used: the susceptible strain Kisumu, homozygous for ace-1 ^S, collected in Kenya in 1953 and maintained since then under laboratory conditions and the resistant Acerkis strain, carrying the genetical background of Kisumu but homozygous for an ace-1^R allele from a population collected in Bobo-Dioulasso, Burkina Faso [41].” for “females.”
as §2, with “program. This program takes into account natural mortality and provides lethal doses (LD) and slopes for each mortality line; it also computes resistance ratios (RR) for each LD, with 95% confidence intervals.” for “program.”

WT AChE1 = WT AChE1 (Culex pipiens, UniProt Q86GC8); experiment: AChE assay (Ellman), dose-response on recombinant WT AChE1; format: biochemical; set-up: made in house; host or cells: Drosophila S2 cells; conditions: recombinant wild-type C. pipiens AChE1; 15 min incubation; acetylthiocholine; read-out: IC50 WT
Method: Production of C. pipiens WT and mutated AChE1s in Drosophila S2 cells was already described. The chemical library (ChemBridge, 3,000 compounds) screening was performed in duplicate on G119S recombinant AChE1. Chemicals were made soluble in ethanol or dimethylsulphoxide (DMSO), and then diluted at 300 µM in ethanol for storage. Compounds (30 µM final concentration) were incubated for 15 min at room temperature with 100 µl of G119S recombinant AChE1 then 100 µl of substrate (acetylthiocholine, 1.6 mM, Sigma-Aldrich) was added and the residual activity was quantified by measuring the optical density at 412 nm, as described by Ellman et al.. PTF analogs were analyzed in dose-response experiments (10-fold serial dilutions from 3 mM to 30 nM), using recombinant WT and G119S AChE1 or mosquito head extracts (heads cut from frozen mosquitoes, homogenized in 400 µl PB containing 1% Triton X-100 and cleared by centrifugation at 9,000×g for 3 min). Depending on compound availability, two to five replicates were performed with distinct batches of enzyme. […] IC50 was estimated by nonlinear least square regression. IC50 was also measured on AChE1 from susceptible and resistant mosquito larvae extracts.

Structure (SMILES) | IC50 (G119S AChE1) | Mortality at 300 µM, SR [1] | Mortality at 300 µM, Slab [2] | IC50 (WT AChE1)
Cc1ccc(C=C2C(=O)NC(=S)N(c3ccc(Br)cc3)C2=O)o1 [PTF-37] | 142 µM | 35% | 0% | 2120 µM
CN1C(=O)C(=Cc2ccco2)C(=O)N(C)C1=O [PTF-38] | 357 µM | 90% | 70% | 1190 µM
CN1C(=O)C(=Cc2ccc([N+](=O)[O-])o2)C(=O)N(C)C1=O [PTF-40] | 55 µM | 0% | 0% | 83 µM
CN1C(=O)C(=Cc2ccc(N(C)C)o2)C(=O)N(C)C1=O [PTF-41] | 132 µM | 20% | 20% | 175 µM
CCN(CC)c1ccc(C=C2C(=O)N(C)C(=O)N(C)C2=O)o1 [PTF-42] | 1040 µM | 0% | 0% | 720 µM
CN1C(=O)C(=Cc2ccc(-c3ccccc3C(=O)O)o2)C(=O)N(C)C1=O [PTF-43] | 8.3 µM | 0% | 0% | 6.7 µM
CN1C(=O)C(=Cc2ccc(-c3cccc(C(=O)O)c3)o2)C(=O)N(C)C1=O [PTF-44] | 0.6 µM | 0% | 0% | 0.6 µM
CC(=O)c1ccc(-c2ccc(C=C3C(=O)N(C)C(=O)N(C)C3=O)o2)cc1 [PTF-45] | 1.1 µM | 0% | 0% | 3.4 µM
CN1C(=O)C(=Cc2ccc(-c3ccc(S(N)(=O)=O)cc3)o2)C(=O)N(C)C1=O [PTF-46] | 5.2 µM | 0% | 0% | 1.7 µM
CN1C(=O)C(=Cc2ccc(Sc3ccccc3)o2)C(=O)N(C)C1=O [PTF-47] | 1.3 µM | 0% | 0% | 3 µM
CN1C(=O)C(=Cc2ccc(N3CCCC3)o2)C(=O)N(C)C1=O [PTF-48] | 1520 µM | 0% | 0% | 755 µM
CN1C(=O)C(=Cc2ccc(N3CCCCC3)o2)C(=O)N(C)C1=O [PTF-49] | 65.5 µM | 0% | 13% | 97 µM
CN1C(=O)C(=Cc2ccc(N3CCOCC3)o2)C(=O)N(C)C1=O [PTF-50] | 145 µM | 0% | 0% | 260 µM
CN1CCN(c2ccc(C=C3C(=O)N(C)C(=O)N(C)C3=O)o2)CC1 [PTF-52] | 52 µM | 0% | 0% | 860 µM
CN1C(=O)C(=Cc2ccc(-c3ccc4c(c3)COC4=O)o2)C(=O)N(C)C1=O [PTF-53] | 5.6 µM | 0% | 0% | 0.6 µM
O=C1NC(=O)N(c2ccccc2)C(=O)C1=Cc1ccco1 [PTF-54] | 737 µM | 100% | 100% | 1390 µM
O=C1NC(=O)N(c2ccccc2)C(=O)C1=Cc1ccc(Br)o1 [PTF-55] | 32.6 µM | 0% | 0% | 17 µM

Structure (SMILES) | IC50 (G119S AChE1) | Mortality at 300 µM, SR [1] | Mortality at 300 µM, Slab [2] | IC50 (WT AChE1)
CCOC(=O)c1ccc(-c2ccc(C=C3C(=O)NC(=O)N(c4ccccc4)C3=O)o2)cc1 [PTF-56] | 1.9 µM | 0% | 0% | 4.9 µM
O=C1NC(=O)N(c2ccccc2)C(=O)C1=Cc1ccc(-c2ccc(C(=O)O)cc2)o1 [PTF-57] | 5.4 µM | 0% | 0% | 11.3 µM
O=C1NC(=O)N(c2ccccc2)C(=O)C1=Cc1ccc(-c2cccc(C(=O)O)c2)o1 [PTF-58] | 9.3 µM | 0% | 0% | 6.7 µM
O=C1NC(=O)N(c2ccccc2)C(=O)C1=Cc1ccc(-c2ccccc2C(=O)O)o1 [PTF-59] | 18.5 µM | 0% | 0% | 45.7 µM
O=C1NC(=O)N(c2ccccc2)C(=O)C1=Cc1ccc(Sc2ccccc2)o1 [PTF-60] | 1.1 µM | 50% | 50% | 7.7 µM
O=C1NC(=O)N(c2ccccc2)C(=O)C1=Cc1ccc(N2CCCCC2)o1 [PTF-61] | 1500 µM | 0% | 0% | 124 µM
O=C1NC(=O)N(c2ccccc2)C(=O)C1=Cc1ccc(N2CCOCC2)o1 [PTF-62] | 345 µM | 0% | 0% | 197 µM
O=C1NC(=S)N(c2ccccc2)C(=O)C1=Cc1ccco1 [PTF-63] | 98 µM | 0% | 0% | 151 µM
N=C1NC(=O)C(=Cc2ccco2)C(=O)N1c1ccccc1 [PTF-64] | 49.5 µM | 0% | 0% | 56 µM
CC(C)(C)N=C1NC(=O)C(=Cc2ccco2)C(=O)N1c1ccccc1 [PTF-65] | 22 µM | 0% | 0% | 37 µM
C=CCN1C(=O)NC(=O)C(=Cc2ccc(C)s2)C1=O [PTF-66] | 51 µM | 100% | 63% | 91.6 µM
O=C1NC(=O)N(c2ccccc2)C(=O)C1=Cc1cccs1 [PTF-67] | 11.2 µM | 0% | 0% | 9.1 µM
Cc1ccc(C=C2C(=O)NC(=O)N(c3ccccc3)C2=O)s1 [PTF-68] | 5 µM | 95% | 89% | 4 µM
O=C1NC(=O)N(c2ccccc2)C(=O)C1=Cc1ccc(-c2cccc(C(=O)O)c2)s1 [PTF-69] | 4.6 µM | 0% | 0% | 43.9 µM
O=C1NC(=O)N(c2ccccc2)C(=O)C1=Cc1ccc(N2CCCCC2)s1 [PTF-70] | 6.2 µM | 0% | 0% | 18 µM
O=C1NC(=O)N(c2ccccc2)C(=O)C1=Cc1ccc(N2CCOCC2)s1 [PTF-71] | 2480 µM | 0% | 0% | 4500 µM
